Data on five molecules can be found in ChEMBL document CHEMBL1129207, “Altering the specificity of subtilisin B. Lentus by combining site-directed mutagenesis and chemical modification” (Bioorg Med Chem Lett, 1996).

Set-up in all cases: species or system Lederbergia lenta
Assay [1] is described as follows: Compound was evaluated for the inhibition of SBL-M222C-SEtNH3+ enzyme.
Assay [2] is described as follows: Compound was evaluated for the inhibition of SBL-M222C-SEtSO3- enzyme.
Assay [3] can be described thus: Compound was evaluated for the inhibition of SBL-M222C-SMe enzyme.
Assay [4] can be described thus: Compound was evaluated for the inhibition of SBL-M222C enzyme.
A short description of assay [5]: Compound was evaluated for the inhibition of SBL-WT enzyme.

For the molecule `OB(O)c1cccc(-c2ccccc2)c1`, the Ki (in general, the equilibrium dissociation constant of an inhibitor or competing ligand from its target) in assay [1] amounted to 40 µM; in assay [2] it was 25 µM; in assay [3] it was 153 µM; in assay [4], 31 µM; in assay [5], 327 µM.

`OB(O)c1ccc(Cl)cc1Cl`: the Ki in assay [1] stood at 8.9 µM; in assay [2], 11 µM; in assay [3], 3.8 µM; in assay [4], 18 µM; in assay [5], 9.2 µM.

For the molecule `Nc1cccc(B(O)O)c1`, the inhibitory constant (Ki) is 127 µM in assay [1]; 176 µM in assay [2]; 139 µM in assay [3]; 204 µM in assay [4]; 150 µM in assay [5].

As to `OB(O)c1ccc(Br)cc1`, the Ki stood at 10.5 µM in assay [1]; 15.6 µM in assay [2]; 11.2 µM in assay [3]; 23 µM in assay [4]; 23 µM in assay [5].

With `OB(O)c1ccccc1` [PHENYLBORONIC ACID], the inhibitory constant (Ki) in assay [1] worked out at 108 µM; in assay [2] it was 146 µM; in assay [3], 123 µM; in assay [4] it was 155 µM; in assay [5], 141 µM.
